Format: physicochemical
Protocol: Insgesamt wurden 4.21 mg UDP-LacNAc isoliert (Gesamtausbeute: 5.2%). Die Substanz ist mindestens 6 Monate bei -20°C stabil. UDP-LacNAc wurde durch NMR-Spektroskopie und Massenspektrometrie charakterisiert. (Fig.1-4)

Gal(β1-4)GlcNAc(α1-UDP [UDP-LacNAc]
stabil: ≥ 6 Monate

— patent EP1068346B1, “NUCLEOTIDE ACTIVATED DISACCHARIDES AND OLIGOSACCHARIDES AND METHOD FOR THE PRODUCTION THEREOF” (Forschungszentrum Jülich GmbH, priority 1998, dated 1999)
